Here are results for four compounds from PubChem BioAssay AID1259407 (Chemical Carcinogenesis Research Information System (CCRIS), 2018).

Activity calls are given as the source filed them. How the calls were made is not given here.

The data set has as its system CCRIS mutagenicity, Ames/micronucleus/aberration tests. Briefly: CCRIS mutagenicity studies.
[1] abbreviates: Test System: AMES SALMONELLA TYPHIMURIUM, Strain/Indicator: TA98, Metabolic Activation: NONE, Method: STANDARD PLATE.
The mark [2] stands for this setting: Test System: AMES SALMONELLA TYPHIMURIUM, Strain/Indicator: TA98, Metabolic Activation: RAT, LIVER, S-9, AROCLOR 1254, Method: STANDARD PLATE.

Regarding `CCC/C=N/O`, the mutagenic call runs as follows: (Test System: AMES SALMONELLA TYPHIMURIUM, Strain/Indicator: TA98, Metabolic Activation: HAMSTER, LIVER, S-9, AROCLOR 1254, Method: STANDARD PLATE) “inactive; negative”; under setting [1], “inactive; negative”; under setting [2], “inactive; negative”; (Test System: AMES SALMONELLA TYPHIMURIUM, Strain/Indicator: TA100, Metabolic Activation: HAMSTER, LIVER, S-9, AROCLOR 1254, Method: STANDARD PLATE) “inactive; negative”; (Test System: AMES SALMONELLA TYPHIMURIUM, Strain/Indicator: TA100, Metabolic Activation: NONE, Method: STANDARD PLATE) “inactive; negative”; (Test System: AMES SALMONELLA TYPHIMURIUM, Strain/Indicator: TA100, Metabolic Activation: RAT, LIVER, S-9, AROCLOR 1254, Method: STANDARD PLATE) “inactive; negative”. The mutagenic call was “inactive; negative” (Test System: AMES SALMONELLA TYPHIMURIUM, Strain/Indicator: TA1535, Metabolic Activation: HAMSTER, LIVER, S-9, AROCLOR 1254, Method: STANDARD PLATE); “inactive; negative” (Test System: AMES SALMONELLA TYPHIMURIUM, Strain/Indicator: TA1535, Metabolic Activation: NONE, Method: STANDARD PLATE); “inactive; negative” (Test System: AMES SALMONELLA TYPHIMURIUM, Strain/Indicator: TA1535, Metabolic Activation: RAT, LIVER, S-9, AROCLOR 1254, Method: STANDARD PLATE); “inactive; negative” (Test System: AMES SALMONELLA TYPHIMURIUM, Strain/Indicator: TA1537, Metabolic Activation: HAMSTER, LIVER, S-9, AROCLOR 1254, Method: STANDARD PLATE); “inactive; negative” (Test System: AMES SALMONELLA TYPHIMURIUM, Strain/Indicator: TA1537, Metabolic Activation: NONE, Method: STANDARD PLATE); “inactive; negative” (Test System: AMES SALMONELLA TYPHIMURIUM, Strain/Indicator: TA1537, Metabolic Activation: RAT, LIVER, S-9, AROCLOR 1254, Method: STANDARD PLATE). The mutagenic call runs as follows: (Test System: AMES SALMONELLA TYPHIMURIUM, Strain/Indicator: TA1538, Metabolic Activation: HAMSTER, LIVER, S-9, AROCLOR 1254, Method: STANDARD PLATE) “inactive; negative”; (Test System: AMES SALMONELLA TYPHIMURIUM, Strain/Indicator: TA1538, Metabolic Activation: NONE, Method: STANDARD PLATE) “inactive; negative”; (Test System: AMES SALMONELLA TYPHIMURIUM, Strain/Indicator: TA1538, Metabolic Activation: RAT, LIVER, S-9, AROCLOR 1254, Method: STANDARD PLATE) “inactive; negative”; (Test System: MOUSE LYMPHOMA, Strain/Indicator: L5178Y (TK+/TK-), Metabolic Activation: NONE, Method: SUSPENSION/PLATE) “active; positive. reevaluation of results: positive”; (Test System: MOUSE LYMPHOMA, Strain/Indicator: L5178Y (TK+/TK-), Metabolic Activation: RAT, LIVER, S-9, AROCLOR 1254, Method: SUSPENSION/PLATE) “inactive; negative. reevaluation of results: negative”.
With `O=C(O)CCC(=O)O`, the mutagenic call is “inactive; negative” (Test System: AMES SALMONELLA TYPHIMURIUM, Strain/Indicator: TA97, Metabolic Activation: NONE, Method: PREINCUBATION); “inactive; negative” (Test System: AMES SALMONELLA TYPHIMURIUM, Strain/Indicator: TA97, Metabolic Activation: RAT, LIVER, S-9, AROCLOR 1254, Method: PREINCUBATION); “inactive; negative” (Test System: AMES SALMONELLA TYPHIMURIUM, Strain/Indicator: TA102, Metabolic Activation: NONE, Method: PREINCUBATION); “inactive; negative” (Test System: AMES SALMONELLA TYPHIMURIUM, Strain/Indicator: TA102, Metabolic Activation: RAT, LIVER, S-9, AROCLOR 1254, Method: PREINCUBATION).
As for `Nc1cccc2cc3c(nc12)CCCC3`, the mutagenic call is “active; positive” (Test System: AMES SALMONELLA TYPHIMURIUM, Strain/Indicator: TA97A, Metabolic Activation: NONE, Method: STANDARD PLATE) and “active; positive” (Test System: AMES SALMONELLA TYPHIMURIUM, Strain/Indicator: TA97A, Metabolic Activation: RAT, LIVER, S-9, AROCLOR 1254, Method: STANDARD PLATE).
For the compound `O=Nc1ccc(Sc2ccccc2)cc1`, the mutagenic call is, setting by setting: (Test System: AMES SALMONELLA TYPHIMURIUM, Strain/Indicator: TA98(NR), Metabolic Activation: NONE, Method: STANDARD PLATE) “active; positive”; under setting [1], “active; positive”; under setting [2], “active; positive”.
